Measured values published in ChEMBL document CHEMBL3745645, “Synthesis, in vitro antitumor activity, dihydrofolate reductase inhibition, DNA intercalation and structure-activity relationship studies of 1,3,5-triazine analogues” (Bioorg Med Chem Lett, 2016).
Active and inactive are the calls of the source. No cut-off for these calls is given here.

What was measured:
Assay type in all cases: functional
[1] = system: CAKI-1; assay: Cytotoxicity against human Caki1 cells at 10 uM after 48 hrs by SRB assay
[2] = Cytotoxicity against human RXF393 cells at 10 uM after 48 hrs by SRB assay; details: RXF 393, 48 h, read-out: GI
[3] = system: SN12C; assay: Cytotoxicity against human SN12C cells at 10 uM after 48 hrs by SRB assay; details: read-out: GI
[4] = system: TK-10; assay: Cytotoxicity against human TK10 cells at 10 uM after 48 hrs by SRB assay
[5] = Cytotoxicity against human UO31 cells at 10 uM after 48 hrs by SRB assay; details: UO-31, 48 h, read-out: GI
[6] = Cytotoxicity against human PC3 cells at 10 uM after 48 hrs by SRB assay; details: PC-3, 48 h, read-out: GI
[7] = system: DU-145; assay: Cytotoxicity against human DU145 cells at 10 uM after 48 hrs by SRB assay
[8] = system: MCF7; assay: Cytotoxicity against human MCF7 cells at 10 uM after 48 hrs by SRB assay; details: MCF7, 48 h, read-out: GI
[9] = system: MDA-MB-231; assay: Cytotoxicity against human MDA-MB-231 cells at 10 uM after 48 hrs by SRB assay; details: MDA-MB-231, 48 h, read-out: GI
[10] = Cytotoxicity against human Hs 578T cells at 10 uM after 48 hrs by SRB assay; details: read-out: GI
[11] = Cytotoxicity against human BT549 cells at 10 uM after 48 hrs by SRB assay; details: BT-549, 48 h, read-out: GI
[12] = system: T47D; assay: Cytotoxicity against human T47D cells at 10 uM after 48 hrs by SRB assay; details: read-out: GI
[13] = system: MDA-MB-468; assay: Cytotoxicity against human MDA-MB-468 cells at 10 uM after 48 hrs by SRB assay; details: MDA-MB-468, 48 h, read-out: GI
[14] = system: CCRF-CEM; assay: Cytotoxicity against human CCRF-CEM cells at 10 uM after 48 hrs by SRB assay; details: read-out: GI
[15] = system: K562; assay: Cytotoxicity against human K562 cells at 10 uM after 48 hrs by SRB assay; details: K562, 48 h, read-out: GI
[16] = Cytotoxicity against human MOLT4 cells at 10 uM after 48 hrs by SRB assay; details: MOLT-4, 48 h, read-out: GI
[17] = Cytotoxicity against human RPMI8226 cells at 10 uM after 48 hrs by SRB assay; details: RPMI-8226, 48 h, read-out: GI
[18] = system: SR; assay: Cytotoxicity against human SR cells at 10 uM after 48 hrs by SRB assay; details: read-out: GI
[19] = system: A549; assay: Cytotoxicity against human A549 cells at 10 uM after 48 hrs by SRB assay; details: A549, 48 h, read-out: GI
[20] = Cytotoxicity against human HOP62 cells at 10 uM after 48 hrs by SRB assay; details: HOP-62, 48 h, read-out: GI
[21] = Cytotoxicity against human HOP92 cells at 10 uM after 48 hrs by SRB assay; details: HOP-92, 48 h, read-out: GI
[22] = system: NCI-H226; assay: Cytotoxicity against human NCI-H226 cells at 10 uM after 48 hrs by SRB assay; details: NCI-H226, 48 h, read-out: GI
[23] = system: NCI-H23; assay: Cytotoxicity against human NCI-H23 cells at 10 uM after 48 hrs by SRB assay; details: NCI-H23, 48 h, read-out: GI
[24] = system: NCI-H322M; assay: Cytotoxicity against human NCI-H322M cells at 10 uM after 48 hrs by SRB assay
[25] = system: NCI-H460; assay: Cytotoxicity against human NCI-H460 cells at 10 uM after 48 hrs by SRB assay; details: NCI-H460, 48 h, read-out: GI
[26] = system: NCI-H522; assay: Cytotoxicity against human NCI-H522 cells at 10 uM after 48 hrs by SRB assay; details: NCI-H522, 48 h, read-out: GI
[27] = Cytotoxicity against human COLO205 cells at 10 uM after 48 hrs by SRB assay; details: COLO 205, 48 h, read-out: GI
[28] = system: HCC 2998; assay: Cytotoxicity against human HCC2998 cells at 10 uM after 48 hrs by SRB assay
[29] = Cytotoxicity against human HCT116 cells at 10 uM after 48 hrs by SRB assay; details: HCT-116, 48 h, read-out: GI
[30] = Cytotoxicity against human HCT15 cells at 10 uM after 48 hrs by SRB assay; details: HCT-15, 48 h, read-out: GI
[31] = system: HT-29; assay: Cytotoxicity against human HT-29 cells at 10 uM after 48 hrs by SRB assay
[32] = system: KM12; assay: Cytotoxicity against human KM12 cells at 10 uM after 48 hrs by SRB assay; details: KM12, 48 h, read-out: GI
[33] = Cytotoxicity against human SW620 cells at 10 uM after 48 hrs by SRB assay; details: SW-620, 48 h, read-out: GI
[34] = system: SF-268; assay: Cytotoxicity against human SF268 cells at 10 uM after 48 hrs by SRB assay
[35] = Cytotoxicity against human SF295 cells at 10 uM after 48 hrs by SRB assay; details: SF-295, 48 h, read-out: GI
[36] = Cytotoxicity against human SF539 cells at 10 uM after 48 hrs by SRB assay; details: SF-539, 48 h, read-out: GI
[37] = Cytotoxicity against human SNB19 cells at 10 uM after 48 hrs by SRB assay; details: SNB-19, 48 h, read-out: GI
[38] = Cytotoxicity against human SNB75 cells at 10 uM after 48 hrs by SRB assay; details: SNB-75, 48 h, read-out: GI
[39] = system: U-251; assay: Cytotoxicity against human U251 cells at 10 uM after 48 hrs by SRB assay; details: U-251, 48 h, read-out: GI
[40] = system: LOX IMVI; assay: Cytotoxicity against human LOXIMVI cells at 10 uM after 48 hrs by SRB assay
[41] = system: Malme-3M; assay: Cytotoxicity against human MALME-3M cells at 10 uM after 48 hrs by SRB assay; details: read-out: GI
[42] = system: M14; assay: Cytotoxicity against human M14 cells at 10 uM after 48 hrs by SRB assay; details: M14, 48 h, read-out: GI
[43] = system: MDA-MB-435; assay: Cytotoxicity against human MDA-MB-435 cells at 10 uM after 48 hrs by SRB assay; details: MDA-MB-435, 48 h, read-out: GI
[44] = system: SK-MEL-28; assay: Cytotoxicity against human SK-MEL-28 cells at 10 uM after 48 hrs by SRB assay
[45] = system: SK-MEL-5; assay: Cytotoxicity against human SK-MEL-5 cells at 10 uM after 48 hrs by SRB assay; details: SK-MEL-5, 48 h, read-out: GI
[46] = system: UACC-257; assay: Cytotoxicity against human UACC257 cells at 10 uM after 48 hrs by SRB assay
[47] = Cytotoxicity against human UACC62 cells at 10 uM after 48 hrs by SRB assay; details: UACC-62, 48 h, read-out: GI
[48] = system: IGROV-1; assay: Cytotoxicity against human IGROV1 cells at 10 uM after 48 hrs by SRB assay
[49] = Cytotoxicity against human OVCAR3 cells at 10 uM after 48 hrs by SRB assay; details: OVCAR-3, 48 h, read-out: GI
[50] = system: OVCAR-4; assay: Cytotoxicity against human OVCAR4 cells at 10 uM after 48 hrs by SRB assay
[51] = Cytotoxicity against human OVCAR8 cells at 10 uM after 48 hrs by SRB assay; details: OVCAR-8, 48 h, read-out: GI
[52] = Cytotoxicity against human NCI-ADR-RES cells at 10 uM after 48 hrs by SRB assay; details: read-out: GI
[53] = system: SK-OV-3; assay: Cytotoxicity against human SKOV3 cells at 10 uM after 48 hrs by SRB assay
[54] = system: 786-0; assay: Cytotoxicity against human 786-0 cells at 10 uM after 48 hrs by SRB assay; details: 786-0, 48 h, read-out: GI
[55] = system: A498; assay: Cytotoxicity against human A498 cells at 10 uM after 48 hrs by SRB assay; details: A498, 48 h, read-out: GI
[56] = system: ACHN; assay: Cytotoxicity against human ACHN cells at 10 uM after 48 hrs by SRB assay; details: read-out: GI

For `Cc1nc2ccc(Nc3nc(NCCO)nc(Nc4ccc(F)cc4)n3)cc2n1Cc1ccccc1`, the “growth inhibition (GI)” value [1] was “inactive”, the inhibition of growth at 10 µM [2] was 26.1% and the inhibition of growth at 10 µM [3] was 1.6%. For the same molecule, the “growth inhibition (GI)” value [4] was “inactive”, the inhibition of growth at 10 µM [5] was 13.2% and the inhibition of growth at 10 µM [6] was 0.89%. The “growth inhibition (GI)” value [7] was “inactive”, the inhibition of growth at 10 µM [8] was 19.8% and the inhibition of growth at 10 µM [9] was 7.95%. It also gave an inhibition of growth at 10 µM [10] of 8.56%, an inhibition of growth at 10 µM [11] of 20.6% and an inhibition of growth at 10 µM [12] of 39.3%. The inhibition of growth at 10 µM [13] was 23%, the inhibition of growth at 10 µM [14] was 25.3% and the inhibition of growth at 10 µM [15] was 25.7%. For the same molecule, the inhibition of growth at 10 µM [16] was 27.5%, the inhibition of growth at 10 µM [17] was 33.7% and the inhibition of growth at 10 µM [18] was 28.3%. For the same molecule, the inhibition of growth at 10 µM [19] was 13.8%, the inhibition of growth at 10 µM [20] was 0.23% and the inhibition of growth at 10 µM [21] was 19.4%. The inhibition of growth at 10 µM [22] was 11.1%, the inhibition of growth at 10 µM [23] was 6.24% and the “growth inhibition (GI)” value [24] was “inactive”. It also gave an inhibition of growth at 10 µM [25] of 4.15%, an inhibition of growth at 10 µM [26] of 20.4% and an inhibition of growth at 10 µM [27] of 6.67%. For the same molecule, the “growth inhibition (GI)” value [28] was “inactive”, the inhibition of growth at 10 µM [29] was 13.3% and the inhibition of growth at 10 µM [30] was 8.36%. The “growth inhibition (GI)” value [31] was “inactive”, the inhibition of growth at 10 µM [32] was 7.5% and the inhibition of growth at 10 µM [33] was 0.58%. For the same molecule, the “growth inhibition (GI)” value [34] was “inactive”, the inhibition of growth at 10 µM [35] was 11% and the inhibition of growth at 10 µM [36] was 3.59%. It also gave an inhibition of growth at 10 µM [37] of 2.43%, an inhibition of growth at 10 µM [38] of 8.89% and an inhibition of growth at 10 µM [39] of 6.96%. For the same molecule, the “growth inhibition (GI)” value [40] was “inactive”, the inhibition of growth at 10 µM [41] was 6.95% and the inhibition of growth at 10 µM [42] was 6.68%. For the same molecule, the inhibition of growth at 10 µM [43] was 2.54%, the “growth inhibition (GI)” value [44] was “inactive” and the inhibition of growth at 10 µM [45] was 26%. For the same molecule, the “growth inhibition (GI)” value [46] was “inactive”, the inhibition of growth at 10 µM [47] was 6.56% and the “growth inhibition (GI)” value [48] was “inactive”. The inhibition of growth at 10 µM [49] was 3.09%, the “growth inhibition (GI)” value [50] was “inactive” and the inhibition of growth at 10 µM [51] was 4.04%. The inhibition of growth at 10 µM [52] was 18.1%, the “growth inhibition (GI)” value [53] was “inactive” and the inhibition of growth at 10 µM [54] was 11.9%. For the same molecule, the inhibition of growth at 10 µM [55] was 25.3% and the inhibition of growth at 10 µM [56] was 4.66%.
